Test results published in patent US20110178396A1, “Nicotinamide Derivatives” (CRC FOR BIOMEDICAL IMAGING DEVELOPMENT LTD., priority 2008, published 2011).

Tested on: B16F0 melanoma tumour
Assay: Biodistribution in B16 melanoma bearing mice
Type: in vivo, C57BL/6J mice
Conditions: C57BL/6J mice; for Organ distribution Intestine / Organ distribution Liver / Organ distribution Spleen / Organ distribution Stomach / Organ distribution Thyroid / Organ distribution Tumour: B16F0 tumour, mean ± S.D.; for Organ distribution Intestine / Organ distribution Liver / Organ distribution Spleen / Organ distribution Stomach / Organ distribution Thyroid / Organ distribution Tumour / Uptake Lung / uptake BLOOD / uptake BRAIN / uptake HEART / uptake KIDNEY / uptake LIVER / uptake TUMOUR: n = 5; for tumour standardized uptake value (SUVt) / Uptake Lung / uptake BLOOD / uptake BRAIN / uptake HEART / uptake KIDNEY / uptake LIVER / uptake TUMOUR: B16 tumour; for Uptake Lung / uptake BLOOD / uptake BRAIN / uptake HEART / uptake KIDNEY / uptake LIVER / uptake TUMOUR: mean ± SD
Method: Animal experiments were performed in compliance with the NHMRC Australian Code of Practice for the care and use of animals for scientific purposes. Female C57BL/6J black and BALB/c nude albino mice of 5 weeks age were obtained from the Animal Resources Centre, Western Australia. B16F0 murine melanoma cells were originally obtained from European Collection of Cell Cultures (UK) and A375 human amelanotic melanoma cells were originally obtained from American Type Culture Collection (USA). Before transplantation, B16F0 and A375 melanoma cells were maintained as a monolayer in RPMI culture medium supplemented with 10% foetal calf serum and antibiotics and passaged with trypsinisation. Early passages were frozen and stored in liquid nitrogen. Cells were passaged to P=10 and then discarded. Frozen aliquots were grown in a monolayer culture to between 80-95% confluence and for transplantation were trypsinised and washed with Ca^2+ and Mg^2+ free phosphate buffered saline (PBS). For inoculation, B16F0 melanoma cells were resuspended in Ca^2+ and Mg^2+ free PBS at 3 or 5×10^6 viable cells per ml and 0.1 ml was subcutaneously injected at the left flank of 6-7 weeks old C57BL/6J mice. Eleven days later, tumours could be palpated in >98% of inoculated animals. A375 human melanoma cells were resuspended at 1×10^7 viablecells per ml and 0.1 ml was injected subcutaneously at the left flank of 6 weeks old BALB/c nude mice and 25-26 days later tumours could be palpated with ˜60% of inoculated animals developing tumours.
Eleven days (B16F0 melanoma) and 25 days (A375 human melanoma) after tumour transplantation, the [^18F]nicotinamides (0.5-1.5 MBq, 100 μl) and [^123I]nicotinamide (0.37-0.74 MBq, 100 μl) derivatives were injected intravenously via the tail vein into mice (15-18 g). Time points of 1, 3, 6, 24, 48, 72 h after injection were chosen for determining the distribution of each compound in various organs and tissues for the iodine-123 labelled compounds and between 15 min and 6 hours (e.g. 15 min, 30 min, 1 h, 2 h, 4 h or 6 h) were chosen for the ^18F-labelled compounds. At defined times post injection, groups of mice (n=5) were weighed, sacrificed by CO2 administration followed by cervical dislocation and dissected. Selected organs were weighed and their radioactivity measured with a γ-counter. The remaining activity in the carcass was also determined in order to obtain the total activity in the mouse at defined time points. The fraction of injected activity (% ID) in the organ was calculated by comparison with suitable dilutions of the injected dose. Then, the radioactivity concentration in the organ (% ID/g) was found by dividing the % ID for each organ by the weight of the organ.

- Organ distribution Intestine (1 h): 15 ± 2 % ID/organ
- Organ distribution Liver (1 h): 1.8 ± 0.3 % ID/organ
- Organ distribution Spleen (1 h): 0.16 ± 0.16 % ID/organ
- Organ distribution Stomach (1 h): 2.0 ± 0.2 % ID/organ
- Organ distribution Thyroid (1 h): 0.37 ± 0.07 % ID/organ
- Organ distribution Tumour (1 h): 1.3 ± 0.3 % ID/organ
- Organ distribution Intestine (3 h): 5 ± 2 % ID/organ
- Organ distribution Liver (3 h): 0.82 ± 0.08 % ID/organ
- Organ distribution Spleen (3 h): 0.06 ± 0.05 % ID/organ
- Organ distribution Stomach (3 h): 1.3 ± 0.3 % ID/organ
- Organ distribution Thyroid (3 h): 1.1 ± 0.3 % ID/organ
- Organ distribution Tumour (3 h): 1.0 ± 0.4 % ID/organ
- Organ distribution Intestine (6 h): 2.8 ± 0.4 % ID/organ
- Organ distribution Spleen (6 h): 0.05 ± 0.04 % ID/organ
- Organ distribution Stomach (6 h): 1.2 ± 0.2 % ID/organ
- Organ distribution Thyroid (6 h): 1.8 ± 1.0 % ID/organ
- Organ distribution Tumour (6 h): 1.1 ± 0.3 % ID/organ
- Organ distribution Intestine (24 h): 0.10 ± 0.02 % ID/organ
- Organ distribution Liver (24 h): 0.12 ± 0.01 % ID/organ
- Organ distribution Spleen (24 h): 0.01 ± 0.03 % ID/organ
- Organ distribution Stomach (24 h): 0.04 ± 0.01 % ID/organ
- Organ distribution Thyroid (24 h): 1.0 ± 0.3 % ID/organ
- Organ distribution Tumour (24 h): 0.7 ± 0.1 % ID/organ
- Organ distribution Intestine (48 h): 0.06 ± 0.01 % ID/organ
- Organ distribution Liver (48 h): 0.06 ± 0.01 % ID/organ
- Organ distribution Spleen (48 h): 0.00 ± 0.00 % ID/organ
- Organ distribution Stomach (48 h): 0.02 ± 0.01 % ID/organ
- Organ distribution Thyroid (48 h): 1.4 ± 0.3 % ID/organ
- Organ distribution Tumour (48 h): 0.7 ± 0.4 % ID/organ
- Organ distribution Intestine (72 h): 0.04 ± 0.01 % ID/organ
- Organ distribution Liver (72 h): 0.04 ± 0.01 % ID/organ
- Organ distribution Spleen (72 h): 0.01 ± 0.01 % ID/organ
- Organ distribution Stomach (72 h): 0.01 ± 0.01 % ID/organ
- Organ distribution Thyroid (72 h): 1.0 ± 0.6 % ID/organ
- Organ distribution Tumour (72 h): 0.3 ± 0.1 % ID/organ
- tumour standardized uptake value (SUVt) (1 h): 3.7 ± 1.0
- Uptake Lung (1 h): 1.4 ± 0.2 % ID/g
- uptake BLOOD (1 h): 1.21 ± 0.17 % ID/g
- uptake BRAIN (1 h): 0.14 ± 0.02 % ID/g
- uptake HEART (1 h): 0.8 ± 0.1 % ID/g
- uptake KIDNEY (1 h): 1.8 ± 0.5 % ID/g
- uptake LIVER (1 h): 1.9 ± 0.3 % ID/g
- uptake TUMOUR (1 h): 7.8 ± 1.7 % ID/g
- tumour standardized uptake value (SUVt) (3 h): 7.4 ± 1.6
- Uptake Lung (3 h): 0.75 ± 0.07 % ID/g
- uptake BLOOD (3 h): 0.92 ± 0.09 % ID/g
- uptake BRAIN (3 h): 0.07 ± 0.01 % ID/g
- uptake HEART (3 h): 0.4 ± 0.04 % ID/g
- uptake KIDNEY (3 h): 0.8 ± 0.1 % ID/g
- uptake LIVER (3 h): 0.9 ± 0.1 % ID/g
- uptake TUMOUR (3 h): 6.0 ± 0.4 % ID/g
- tumour standardized uptake value (SUVt) (6 h): 12 ± 1
- Uptake Lung (6 h): 0.47 ± 0.11 % ID/g
- uptake BLOOD (6 h): 0.58 ± 0.14 % ID/g
- uptake BRAIN (6 h): 0.04 ± 0.01 % ID/g
- uptake HEART (6 h): 0.26 ± 0.06 % ID/g
- uptake KIDNEY (6 h): 0.5 ± 0.1 % ID/g
- uptake LIVER (6 h): 0.6 ± 0.1 % ID/g
- uptake TUMOUR (6 h): 5.9 ± 0.7 % ID/g
- tumour standardized uptake value (SUVt) (24 h): 37 ± 9
- Uptake Lung (24 h): 0.03 ± 0.02 % ID/g
- uptake BLOOD (24 h): 0.03 ± 0.01 % ID/g
- uptake BRAIN (24 h): 0.01 % ID/g
- uptake HEART (24 h): 0.04 ± 0.01 % ID/g
- uptake KIDNEY (24 h): 0.03 ± 0.01 % ID/g
- uptake LIVER (24 h): 0.12 ± 0.02 % ID/g
- uptake TUMOUR (24 h): 3.2 ± 0.9 % ID/g
- tumour standardized uptake value (SUVt) (48 h): 22 ± 5
- Uptake Lung (48 h): 0.04 ± 0.01 % ID/g
- uptake BRAIN (48 h): 0.01 % ID/g
- uptake HEART (48 h): 0.03 ± 0.01 % ID/g
- uptake KIDNEY (48 h): 0.03 ± 0.01 % ID/g
- uptake LIVER (48 h): 0.08 ± 0.02 % ID/g
- uptake TUMOUR (48 h): 2.2 ± 0.4 % ID/g
- tumour standardized uptake value (SUVt) (72 h): 18 ± 12
- Uptake Lung (72 h): 0.04 ± 0.04 % ID/g
- uptake BLOOD (72 h): 0.02 ± 0.01 % ID/g
- uptake BRAIN (72 h): 0.01 % ID/g
- uptake HEART (72 h): 0.06 ± 0.02 % ID/g
- uptake KIDNEY (72 h): 0.02 ± 0.02 % ID/g
- uptake LIVER (72 h): 0.04 ± 0.01 % ID/g
- uptake TUMOUR (72 h): 1.4 ± 0.3 % ID/g
SMILES: CCN(CC)CCNC(=O)c1cncc(I)c1 [[^123I]11, N-(2-(diethylamino)ethyl)-5-iodonicotinamide]
